Patent US12077503B2, “Substituted cyclic amides and their use as herbicides” (FMC CORPORATION, priority 2015, dated 2024)
Like-named read-outs stand apart in the source and are kept apart here. One block for each molecule: values may come before it.

Columns and labels:
[1] = system: ducksalad (Heteranthera limosa); assay: Test B flooded paddy test; format: in vivo; details: 250 g ai/ha, Flood, 0 to 100 scale where 0 is no effect and 100 is complete control; for pest or weed control at 250 g/ha: Heteranthera limosa, read-out: Ducksalad plant response rating; for Plant response rating, Ducksalad: 13 to 15 d
How it was run: (§1)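 Plants at 2-leaf stage flooded to 3 cm above soil, with compounds applied directly to paddy water and that depth maintained. Plants kept in greenhouse 13–15 d. Visual rating versus controls on a 0 (no effect) to 100 (complete control) scale.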

[2] = system: sedge, umbrella (small-flower umbrella sedge, Cyperus difformis); assay: Test B flooded paddy test; format: in vivo; details: 250 g ai/ha, Flood, 0 to 100 scale where 0 is no effect and 100 is complete control; for pest or weed control at 250 g/ha: Cyperus difformis, read-out: Sedge, Umbrella plant response rating; for Plant response rating, Sedge, Umbrella: 13 to 15 d
How it was run: as §1

[3] = system: barnyardgrass (Echinochloa crus-galli); assay: Test B flooded paddy test; format: in vivo; details: 250 g ai/ha, Flood, 0 to 100 scale where 0 is no effect and 100 is complete control; for pest or weed control at 250 g/ha: Echinochloa crus-galli, read-out: Barnyardgrass plant response rating; for Plant response rating, Barnyardgrass: 13 to 15 d
How it was run: as §1

rice (Oryra sativa) = assay: Test B flooded paddy test; format: in vivo; details: 250 g ai/ha, Flood, 0 to 100 scale where 0 is no effect and 100 is complete control; for pest or weed control at 250 g/ha: Oryza sativa, read-out: Rice plant response rating; for Plant response rating, Rice: 13 to 15 d
How it was run: as §1

[4] = system: ragweed (common ragweed, Ambrosia elatior); assay: Test A postemergence; format: in vivo; details: Ambrosia artemisiifolia, post-emergence, 240 h; for pest or weed control at 125 g/ha: 125 g ai/ha; for pest or weed control at 500 g/ha: 500 g ai/ha
How it was run: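 Preemergence directed soil spray on seeded pots, or postemergence application to plants 2–10 cm, one- to two-leaf. Solvent mixture non-phytotoxic, with surfactant. Scored ~10 d later, visually, 0–100 vs untreated.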

[5] = system: oilseed rape (Brassica napus); assay: Test C preemergence; format: in vivo; details: for Plant response rating (scale of 0 to 100), Oilseed Rape: 31 g ai/ha, 0 is no effect, 100 is complete control; for Plant response rating, Oilseed Rape: scale 0 to 100, 0 no effect, 100 complete control
How it was run: (§2)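 Seeds in loam-sand soil treated preemergence, or plants in peat-based medium sprayed postemergence at 2–18 cm (1- to 4-leaf stage), with compound in a non-phytotoxic solvent mixture containing surfactant. Greenhouse-held 13–15 d, then visually rated against controls on a 0–100 scale (0 = no effect, 100 = complete control); dash = not tested.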

corn (Zea mays) = assay: Test C preemergence; format: in vivo; details: for Plant response rating (scale of 0 to 100), Corn: 31 g ai/ha, 0 is no effect, 100 is complete control; for Plant response rating, Corn: scale 0 to 100, 0 no effect, 100 complete control
How it was run: as §2

[6] = system: crabgrass, large (large crabgrass, Digitaria sanguinalis); assay: Test C preemergence; format: in vivo; details: for Plant response rating (scale of 0 to 100), Crabgrass, Large: 31 g ai/ha, 0 is no effect, 100 is complete control; for Plant response rating, Crabgrass, Large: scale 0 to 100, 0 no effect, 100 complete control
How it was run: as §2

[7] = system: nutsedge, yellow (yellow nutsedge, Cyperus esculentus); assay: Test C preemergence; format: in vivo; details: for Plant response rating (scale of 0 to 100), Nutsedge, Yellow: 31 g ai/ha, 0 is no effect, 100 is complete control; for Plant response rating, Nutsedge, Yellow: scale 0 to 100, 0 no effect, 100 complete control
How it was run: as §2

[8] = system: velvetleaf (Abutilon theophrasti); assay: Test C preemergence; format: in vivo; details: for Plant response rating (scale of 0 to 100), Velvetleaf: 31 g ai/ha, 0 is no effect, 100 is complete control; for Plant response rating, Velvetleaf: scale 0 to 100, 0 no effect, 100 complete control
How it was run: as §2

[9] = system: wheat (winter wheat, Triticum aestivum); assay: Test C preemergence; format: in vivo; details: for Plant response rating (scale of 0 to 100), Wheat: 31 g ai/ha, 0 is no effect, 100 is complete control; for Plant response rating, Wheat: scale 0 to 100, 0 no effect, 100 complete control
How it was run: as §2

[10] = system: ryegrass, Italian (Italian ryegrass, Lolium multiflorum); assay: Test C preemergence; format: in vivo; details: for Plant response rating (scale of 0 to 100), Ryegrass, Italian: 31 g ai/ha, 0 is no effect, 100 is complete control; for Plant response rating, Ryegrass, Italian: scale 0 to 100, 0 no effect, 100 complete control
How it was run: as §2

[11] = system: Galium (catchweed bedstraw, Galium aparine); assay: Test C preemergence; format: in vivo; details: for Plant response rating (scale of 0 to 100), Galium: 31 g ai/ha, 0 is no effect, 100 is complete control; for Plant response rating, Galium: scale 0 to 100, 0 no effect, 100 complete control
How it was run: as §2

[12] = system: pigweed (Amaranthus retroflexus); assay: Test C preemergence; format: in vivo; details: for Plant response rating (scale of 0 to 100), Pigweed: 31 g ai/ha, 0 is no effect, 100 is complete control; for Plant response rating, Pigweed: scale 0 to 100, 0 no effect, 100 complete control
How it was run: as §2

[13] = postemergence, 0 to 100 scale, 0 is no effect, 100 is complete control, read-out: Ragweed plant response rating
[14] = postemergence, visual rating after approx. 10 d, 0 to 100 scale (0 no effect, 100 complete control), read-out: Plant response rating, Ragweed
[15] = postemergence, visual injury on 0 to 100 scale (0 no effect, 100 complete control), approx. 10 d, read-out: Ragweed plant response rating

melting point: 102 to 106 °C
SMILES: O=C1NC[C@H](c2ccc(F)c(OC(F)(F)C(F)F)c2)[C@H]1C(=O)Nc1ccc(F)cc1F (racemic) [Compound 1154]
pest or weed control at 250 g/ha [1]: 100% | pest or weed control at 250 g/ha [2]: 0% | pest or weed control at 250 g/ha [3]: 30% | pest or weed control at 250 g/ha (rice (Oryra sativa)): 30% | pest or weed control at 125 g/ha ([4]; postemergence, visual injury vs untreated controls after approx. 10 d, 0 = no effect, 100 = complete control, read-out: Ragweed plant response rating (0 to 100 scale)): 0% | pest or weed control at 500 g/ha [4, 13]: 40%

SMILES: CN1C[C@H](c2ccc(C(F)(F)F)cc2)[C@@H](C(=O)Nc2ccccc2F)C1=O [Compound 622, (3S,4S)—N-(2-fluorophenyl)-1-methyl-2-oxo-4-[4-(trifluoromethyl)phenyl]-3-pyrrolidinecarboxamide]
Plant response rating, Ducksalad [1]: 100 | Plant response rating, Sedge, Umbrella [2]: 0 | Plant response rating, Barnyardgrass [3]: 70 | Plant response rating, Rice (rice (Oryra sativa)): 0 | pest or weed control at 125 g/ha [4, 14]: 0% | pest or weed control at 500 g/ha ([4]; Postemergence, 0 to 100 scale where 0 is no effect and 100 is complete control, read-out: Plant response rating, Ragweed): 40% | Plant response rating (scale of 0 to 100), Oilseed Rape [5]: 60 | Plant response rating, Oilseed Rape ([5]; 62 g ai/ha): 85 | Plant response rating, Oilseed Rape ([5]; 125 g ai/ha): 85 | Plant response rating, Oilseed Rape ([5]; 250 g ai/ha): 85 | Plant response rating (scale of 0 to 100), Corn (corn (Zea mays)): 5 | Plant response rating, Corn (corn (Zea mays); 62 g ai/ha): 45 | Plant response rating, Corn (corn (Zea mays); 125 g ai/ha): 85 | Plant response rating, Corn (corn (Zea mays); 250 g ai/ha): 80 | Plant response rating (scale of 0 to 100), Crabgrass, Large [6]: 100 | Plant response rating, Crabgrass, Large ([6]; 62 g ai/ha): 95 | Plant response rating, Crabgrass, Large ([6]; 125 g ai/ha): 100 | Plant response rating, Crabgrass, Large ([6]; 250 g ai/ha): 100 | Plant response rating (scale of 0 to 100), Nutsedge, Yellow [7]: 0 | Plant response rating, Nutsedge, Yellow ([7]; 62 g ai/ha): 0 | Plant response rating, Nutsedge, Yellow ([7]; 125 g ai/ha): 0 | Plant response rating, Nutsedge, Yellow ([7]; 250 g ai/ha): 0 | Plant response rating (scale of 0 to 100), Velvetleaf [8]: 0 | Plant response rating, Velvetleaf ([8]; 62 g ai/ha): 25 | Plant response rating, Velvetleaf ([8]; 125 g ai/ha): 70 | Plant response rating, Velvetleaf ([8]; 250 g ai/ha): 70 | Plant response rating (scale of 0 to 100), Wheat [9]: 30 | Plant response rating, Wheat ([9]; 62 g ai/ha): 40 | Plant response rating, Wheat ([9]; 125 g ai/ha): 70 | Plant response rating, Wheat ([9]; 250 g ai/ha): 80 | Plant response rating (scale of 0 to 100), Ryegrass, Italian [10]: 25 | Plant response rating, Ryegrass, Italian ([10]; 62 g ai/ha): 50 | Plant response rating, Ryegrass, Italian ([10]; 125 g ai/ha): 35 | Plant response rating, Ryegrass, Italian ([10]; 250 g ai/ha): 70 | Plant response rating (scale of 0 to 100), Galium [11]: 80 | Plant response rating, Galium ([11]; 62 g ai/ha): 90 | Plant response rating, Galium ([11]; 125 g ai/ha): 90 | Plant response rating, Galium ([11]; 250 g ai/ha): 90 | Plant response rating (scale of 0 to 100), Pigweed [12]: 75 | Plant response rating, Pigweed ([12]; 62 g ai/ha): 85 | Plant response rating, Pigweed ([12]; 125 g ai/ha): 85 | Plant response rating, Pigweed ([12]; 250 g ai/ha): 90

SMILES: CN1C[C@H](c2ccc(F)c(F)c2)[C@@H](C(=O)Nc2cccc(F)c2F)C1=O [Compound 639, (3S,4S)—N-(2,3-difluorophenyl)-4-(3,4-difluorophenyl)-1-methyl-2-oxo-3-pyrrolidinecarboxamide]
Plant response rating, Ducksalad [1]: 100 | Plant response rating, Sedge, Umbrella [2]: 0 | Plant response rating, Barnyardgrass [3]: 80 | Plant response rating, Rice (rice (Oryra sativa)): 0 | pest or weed control at 125 g/ha [4, 14]: 0% | pest or weed control at 500 g/ha ([4]; postemergence, visual injury, 0 to 100 scale (0 no effect, 100 complete control), approx. 10 d, read-out: Plant response rating, Ragweed): 30% | Plant response rating (scale of 0 to 100), Oilseed Rape [5]: 0 | Plant response rating, Oilseed Rape ([5]; 62 g ai/ha): 60 | Plant response rating, Oilseed Rape ([5]; 125 g ai/ha): 85 | Plant response rating, Oilseed Rape ([5]; 250 g ai/ha): 90 | Plant response rating (scale of 0 to 100), Corn (corn (Zea mays)): 5 | Plant response rating, Corn (corn (Zea mays); 62 g ai/ha): 40 | Plant response rating, Corn (corn (Zea mays); 125 g ai/ha): 80 | Plant response rating, Corn (corn (Zea mays); 250 g ai/ha): 85 | Plant response rating (scale of 0 to 100), Crabgrass, Large [6]: 98 | Plant response rating, Crabgrass, Large ([6]; 62 g ai/ha): 98 | Plant response rating, Crabgrass, Large ([6]; 125 g ai/ha): 100 | Plant response rating, Crabgrass, Large ([6]; 250 g ai/ha): 100 | Plant response rating (scale of 0 to 100), Nutsedge, Yellow [7]: 0 | Plant response rating, Nutsedge, Yellow ([7]; 62 g ai/ha): 0 | Plant response rating, Nutsedge, Yellow ([7]; 125 g ai/ha): 0 | Plant response rating, Nutsedge, Yellow ([7]; 250 g ai/ha): 20 | Plant response rating (scale of 0 to 100), Velvetleaf [8]: 0 | Plant response rating, Velvetleaf ([8]; 62 g ai/ha): 30 | Plant response rating, Velvetleaf ([8]; 125 g ai/ha): 65 | Plant response rating, Velvetleaf ([8]; 250 g ai/ha): 55 | Plant response rating (scale of 0 to 100), Wheat [9]: 0 | Plant response rating, Wheat ([9]; 62 g ai/ha): 65 | Plant response rating, Wheat ([9]; 125 g ai/ha): 80 | Plant response rating, Wheat ([9]; 250 g ai/ha): 85 | Plant response rating (scale of 0 to 100), Ryegrass, Italian [10]: 25 | Plant response rating, Ryegrass, Italian ([10]; 62 g ai/ha): 60 | Plant response rating, Ryegrass, Italian ([10]; 125 g ai/ha): 60 | Plant response rating, Ryegrass, Italian ([10]; 250 g ai/ha): 70 | Plant response rating (scale of 0 to 100), Galium [11]: 85 | Plant response rating, Galium ([11]; 62 g ai/ha): 80 | Plant response rating, Galium ([11]; 125 g ai/ha): 85 | Plant response rating, Galium ([11]; 250 g ai/ha): 95 | Plant response rating (scale of 0 to 100), Pigweed [12]: 40 | Plant response rating, Pigweed ([12]; 62 g ai/ha): 55 | Plant response rating, Pigweed ([12]; 125 g ai/ha): 65 | Plant response rating, Pigweed ([12]; 250 g ai/ha): 75

SMILES: CC(C)Oc1ccc([C@H]2CNC(=O)[C@@H]2C(=O)Nc2cccc(F)c2F)cc1 [Compound 1136]
pest or weed control at 250 g/ha [1]: 85% | pest or weed control at 250 g/ha [2]: 0% | pest or weed control at 250 g/ha [3]: 0% | pest or weed control at 250 g/ha (rice (Oryra sativa)): 0% | pest or weed control at 125 g/ha [4, 15]: 0% | pest or weed control at 500 g/ha [4, 13]: 0%

SMILES: CC(C)Oc1ccc([C@H]2CNC(=O)[C@@H]2C(=O)Nc2ccc(F)cc2F)cc1 [Compound 1137]
pest or weed control at 250 g/ha [1]: 0% | pest or weed control at 250 g/ha [2]: 0% | pest or weed control at 250 g/ha [3]: 0% | pest or weed control at 250 g/ha (rice (Oryra sativa)): 0% | pest or weed control at 125 g/ha [4, 15]: 0% | pest or weed control at 500 g/ha [4, 13]: 0%
